Results reported in patent US20130143929A1, “FUNGICIDAL IMIDAZOLES” (EI DU PONT DE NEMOURS AND COMPANY, priority 2010, published 2013).
Marks after values point to notes of the source that are not given here.

Experiments:
Format in all cases: in vivo
[1] = test system: Botrytis cinerea (the causal agent of tomato Botrytis); assay: Test C: tomato Botrytis, preventive spray on tomato seedlings, visual disease rating; details: for Test C rating (100 = 100% disease control, 0 = no disease control relative to the controls): tomato Botrytis, preventive spray on tomato seedlings; for Test C rating (% disease control, tomato Botrytis): no asterisk: standard test suspension concentration, 100 = 100% disease control, 0 = no control relative to controls
From the text: (§1) General protocol for preparing test suspensions for Tests A-D: the test compounds were first dissolved in acetone in an amount equal to 3% of the final volume and then suspended at the desired concentration (in ppm) in acetone and purified water (50/50 mix by volume) containing 250 ppm of the surfactant Trem® 014 (polyhydric alcohol esters). The resulting test suspensions were then used in Tests A-D. Spraying a 200 ppm test suspension to the point of run-off on the test plants was the equivalent of a rate of 800 g/ha.
(§2) The test suspension was sprayed to the point of run-off on tomato seedlings. The following day the seedlings were inoculated with a spore suspension of Botrytis cinerea (the causal agent of tomato Botrytis) and incubated in a saturated atmosphere at 20° C. for 48 h, and then moved to a growth chamber at 24° C. for 3 days, after which time visual disease ratings were made.
(§3) Results for Tests A-E are given in Table A. In the Table, a rating of 100 indicates 100% disease control and a rating of 0 indicates no disease control (relative to the controls). A dash (—) indicates no test results. An asterisk “*” next to the rating value indicates a 40 ppm test suspension was used.

[2] = test system: Blumeria graminis f. sp. tritici (also known as Erysiphe graminis f. sp. tritici, the causal agent of wheat powdery mildew); assay: Test D: wheat powdery mildew, preventive spray on wheat seedlings, visual disease rating; details: for Test D rating (100 = 100% disease control, 0 = no disease control relative to the controls): wheat powdery mildew, preventive spray on wheat seedlings; for Test D rating (% disease control, wheat powdery mildew): no asterisk: standard test suspension concentration, 100 = 100% disease control, 0 = no control relative to controls
From the text: as §1
The test suspension was sprayed to the point of run-off on wheat seedlings. The following day the seedlings were inoculated with a spore dust of Blumeria graminis f. sp. tritici, (also known as Erysiphe graminis f. sp. tritici, the causal agent of wheat powdery mildew) and incubated in a growth chamber at 20° C. for 8 days, after which time visual disease ratings were made.
as §3

[3] = test system: Puccinia recondite f. sp. tritici (the causal agent of wheat leaf rust); assay: Test A: wheat leaf rust, preventive spray on wheat seedlings, visual disease rating; details: for Test A rating (100 = 100% disease control, 0 = no disease control relative to the controls): wheat leaf rust, preventive spray on wheat seedlings; for Test A rating (% disease control, wheat leaf rust): no asterisk: standard test suspension concentration, 100 = 100% disease control, 0 = no control relative to controls
From the text: as §1
as §2, with “wheat” for “tomato”, “Puccinia recondite f. sp. tritici” for “Botrytis cinerea”, “wheat leaf rust)” for “tomato Botrytis)”, “24” for “48”, “20°” for “24°”, “7” for “3”
as §3

[4] = test system: Septoria tritici (the causal agent of wheat leaf blotch); assay: Test B: wheat leaf blotch, preventive spray on wheat seedlings, visual disease rating; details: for Test B rating (100 = 100% disease control, 0 = no disease control relative to the controls): wheat leaf blotch, preventive spray on wheat seedlings; for Test B rating (% disease control, wheat leaf blotch): no asterisk: standard test suspension concentration, 100 = 100% disease control, 0 = no control relative to controls
From the text: as §1
as §2, with “wheat” for “tomato”, “Septoria tritici” for “Botrytis cinerea”, “wheat leaf blotch)” for “tomato Botrytis)”, “24°” for “20°”, “20°” for “24°”, “19” for “3”
as §3

[5] = no asterisk (standard test suspension concentration, not 40 ppm)
[6] = asterisk: 40 ppm test suspension

In the case of `Cc1nc(Br)c(C(O)c2ccc(Cl)cc2Cl)n1-c1ccc(F)cc1F` (racemic) [compound 259], the “Test C rating (100 = 100% disease control, 0 = no disease control relative to the controls)” value [1, 5] is reported as 0%, the “Test D rating (100 = 100% disease control, 0 = no disease control relative to the controls)” value [2, 5] is reported as 0% and the “Test A rating (100 = 100% disease control, 0 = no disease control relative to the controls)” value [3, 5] is reported as 99%. The “Test B rating (100 = 100% disease control, 0 = no disease control relative to the controls)” value [4, 5] was 100%.
`Cc1cccc(F)c1-n1c(C)nc(Br)c1C(O)c1ccc(F)cc1Cl` (stereo not shown) [compound 342] was tested, and the “Test C rating (100 = 100% disease control, 0 = no disease control relative to the controls)” value [1, 6] was 98* %, the “Test D rating (100 = 100% disease control, 0 = no disease control relative to the controls)” value [2, 6] was 64* % and the “Test A rating (100 = 100% disease control, 0 = no disease control relative to the controls)” value [3, 6] was 94* %. The “Test B rating (100 = 100% disease control, 0 = no disease control relative to the controls)” value [4, 6] was 100* %.
`Cc1nc(Cl)c(C(O)c2ccc(F)cc2Cl)n1-c1c(F)cccc1F` (stereo not shown) [compound 98] was tested, and the “Test C rating (100 = 100% disease control, 0 = no disease control relative to the controls)” value [1, 6] was 100* %, the “Test D rating (100 = 100% disease control, 0 = no disease control relative to the controls)” value [2, 6] was 99* % and the “Test A rating (100 = 100% disease control, 0 = no disease control relative to the controls)” value [3, 6] was 100* %. For the same compound, the “Test B rating (100 = 100% disease control, 0 = no disease control relative to the controls)” value [4, 6] was 100* %.
With `Cc1ncc(C(O)c2ccc(Cl)cc2Cl)n1-c1ccc(F)cc1F` (racemic) [compound 256] the “Test C rating (100 = 100% disease control, 0 = no disease control relative to the controls)” value [1, 5] was 0%, the “Test D rating (100 = 100% disease control, 0 = no disease control relative to the controls)” value [2, 5] was 0% and the “Test A rating (100 = 100% disease control, 0 = no disease control relative to the controls)” value [3, 5] was 55%. For the same compound, the “Test B rating (100 = 100% disease control, 0 = no disease control relative to the controls)” value [4, 5] was 6%.
In the case of `Cc1ncc(C(O)c2ccc(F)cc2F)n1-c1c(F)cccc1Br` (stereo not shown) [compound 409], the “Test C rating (% disease control, tomato Botrytis)” value [1] is reported as 57%, the “Test D rating (% disease control, wheat powdery mildew)” value [2] is reported as 0% and the “Test A rating (% disease control, wheat leaf rust)” value [3] is reported as 99%. The “Test B rating (% disease control, wheat leaf blotch)” value [4] was 100%.
With `Cc1nc(Cl)n(-c2ccc(Cl)cc2Cl)c1C(O)c1c(F)cc(Cl)cc1F` (racemic) [compound 36] the “Test C rating (100 = 100% disease control, 0 = no disease control relative to the controls)” value [1, 5] was 98%, the “Test D rating (100 = 100% disease control, 0 = no disease control relative to the controls)” value [2, 5] was 0% and the “Test A rating (100 = 100% disease control, 0 = no disease control relative to the controls)” value [3, 5] was 99%. The “Test B rating (100 = 100% disease control, 0 = no disease control relative to the controls)” value [4, 5] was 100%.
For `Cc1cc(F)ccc1C(O)c1c(Br)nc(C)n1-c1c(F)cc(F)cc1Br` (stereo not shown) [compound 408], the “Test C rating (% disease control, tomato Botrytis)” value [1] was 99%, the “Test D rating (% disease control, wheat powdery mildew)” value [2] was 56% and the “Test A rating (% disease control, wheat leaf rust)” value [3] was 100%. For the same compound, the “Test B rating (% disease control, wheat leaf blotch)” value [4] was 100%.
For `Cc1nc(Cl)c(C(O)c2ccc(F)cc2Cl)n1-c1ccc(F)cc1Br` (stereo not shown) [compound 130], the “Test C rating (100 = 100% disease control, 0 = no disease control relative to the controls)” value [1, 6] was 87* %, the “Test D rating (100 = 100% disease control, 0 = no disease control relative to the controls)” value [2, 5] was 0% and the “Test A rating (100 = 100% disease control, 0 = no disease control relative to the controls)” value [3, 5] was 99%. For the same compound, the “Test B rating (100 = 100% disease control, 0 = no disease control relative to the controls)” value [4, 5] was 100%.
In the case of `Cc1nc(Cl)c(C(O)c2ccc(Cl)cc2)n1-c1ccc(Cl)cc1Cl` (racemic) [compound 244], the “Test C rating (100 = 100% disease control, 0 = no disease control relative to the controls)” value [1, 6] is reported as 78* %, the “Test D rating (100 = 100% disease control, 0 = no disease control relative to the controls)” value [2, 6] is reported as 21* % and the “Test A rating (100 = 100% disease control, 0 = no disease control relative to the controls)” value [3, 6] is reported as 98* %. For the same compound, the “Test B rating (100 = 100% disease control, 0 = no disease control relative to the controls)” value [4, 6] was 100* %.
`Cc1cc(F)ccc1C(O)c1c(C)nc(Cl)n1-c1ccc(F)cc1F` (stereo not shown) [compound 104] was tested, and the “Test C rating (100 = 100% disease control, 0 = no disease control relative to the controls)” value [1, 5] was 99%, the “Test D rating (100 = 100% disease control, 0 = no disease control relative to the controls)” value [2, 5] was 97% and the “Test A rating (100 = 100% disease control, 0 = no disease control relative to the controls)” value [3, 5] was 100%. For the same compound, the “Test B rating (100 = 100% disease control, 0 = no disease control relative to the controls)” value [4, 5] was 100%.
